{"source": "paper PMC5977504", "about": "“Mucin architecture behind the immune response: design, evaluation and conformational analysis of an antitumor vaccine derived from an unnatural MUC1 fragment” (Chemical Science, 2015)", "test": "Degradation studies with human plasma (20% human serum)", "type": "in vitro ADME", "details": "20% human serum (from human male AB plasma) in water, 37 °C, glycopeptide 0.5 mg·mL-1, sampled every hour, UPLC-micrOTOF-Q", "source_text": "We examined then the stability of the unnatural MUC1 derivative in human plasma. To this end, we synthesized glycopeptides APDThr(α-D-GalNAc)RP and APDMeSer(α-D-GalNAc)RP (ESI ^†). The degradation of the glycopeptide containing threonine was faster (around 1.8-fold) compared to the unnatural compound. […]\nan r−6 averaging. The equilibrium distance range was set to rexp − 0.2 Å ≤ rexp ≤ rexp + 0.2 Å.\nTrajectories were run at 298 K, with a decay constant of 2000 ps and a time step of 1 fs.\nThe force constants rk2 and rk3 used in each case were 10 kcal·mol−1·Å−2. The overall simulation length for the simulations was 20 ns. The coordinates were saved each 1 ps, thus, obtaining MD trajectories of 20000 frames each. A convergence within the equilibrium distance range was obtained in the simulations. The analysis of the MD-tar trajectories has been carried out with the cpptraj modules of AMBER 12.\nDegradation studies with human plasma.\nCommercially available serum from human male AB plasma was used. […] Degradation of the peptides was determined every hour by using UPLC-micrOTOF-Q (column: ACQUITY UPLC BEH C18 1,7; diameter: 2.1 mm and length: 100 mm), eluting a mixture of 5 µL of the glycopeptide-serum solution in 795 µL of water and employing an isocratic method (70% H2O, 30% acetonitrile, temperature: […]", "data": [{"smiles": "CC(=O)N[C@H]1[C@@H](O[C@H](C)[C@H](NC(=O)[C@H](CC(=O)O)NC(=O)[C@@H]2CCCN2C(=O)[C@H](C)N)C(=O)N[C@@H](CCCNC(=N)N)C(=O)N2CCC[C@H]2C(N)=O)O[C@H](CO)[C@H](O)[C@@H]1O", "note": "[APDThr(α-D-GalNAc)RP]", "values": [{"measurement": "degradation, faster compared to the unnatural compound APDMeSer(α-D-GalNAc)RP", "result": "around 1.8 fold"}]}]}
